The results in this text go back to patent US20220280543A1, “DDX17 AND NLRC4 TARGETING FOR INFLAMMATORY DISEASES” (University of Virginia Patent Foundation, priority 2019, published 2022).

One series concerns NLRC4. Description: Alu RNA induced NLRC4 oligomers in human RPE cells, native PAGE. The series is classed as cell-based. The settings on record: Alu RNA transfection vs mock (FIG. 24B). From the text: FIGS. 24A and 24B. Alu RNA (SEQ ID NO: 86) induced NLRC4 activation in human RPE cells. To test whether Alu RNA (SEQ ID NO: 86) induces NLRC4 activation in human RPE, we transfected human RPE with Alu RNA (SEQ ID NO: 86 at 100 pmol). FIG. 24A. Immunofluorescence staining on NLRC4 show Alu RNA (SEQ ID NO: 86) induced cytosolic NLRC4 punctate in hRPE cells. The NLRC4 aggregates induced by Alu RNA (SEQ ID NO: 86) are indicated by white arrows. FIG. 24B. Alu RNA (SEQ ID NO: 86) induced NLRC4 (p-NLRC4) phosphorylation and oligomerization. Loading control show by Actin. NLRC4 oligomers were detected by Tris-glycine native PAGE. […] The band of NLRC4 oligomers is indicated by black arrow.
(§1) Next, we asked whether Alu RNA (SEQ ID NO: 86) also triggered NLRC4 inflammasome activation in human RPE cells. We performed immunofluorescence staining experiments to examine whether Alu RNA (SEQ ID NO: 86) can induce NLRC4 speck formation in human RPE cells. We noticed punctate structures resembling specks of NLRC4 in human RPE cells in response to Alu RNA (SEQ ID NO: 86) treatment (FIG. 24A). […] We further investigated downstream events of NLRC4 inflammasome activation by studying NLRC4-induced ASC oligomerization, a critical step involved in caspase-1 cleavage. NLRC4 siRNA, when co-administered with Alu RNA (SEQ ID NO: 86), blocked ASC oligomerization in vitro (FIG. 25A) and RPE degeneration in vivo (FIG. 25B).

The subject of series [1] is NLRC4 phosphorylation (site S533). Description: SINE RNA induced NLRC4 phosphorylation (S533) in BMDM, Western blot. The settings on record: SINE RNAs each at 100 pmol, polyI:C 10 μg/ml (FIG. 1). It counts as cell-based, mouse. The protocol: FIG. 1. SINE RNA induced NLRC4 phosphorylation (site S533) in mice macrophage (BMDM). Mouse bone marrow derived macrophage (BMDM) were treated with SINE RNAs (Alu (SEQ ID NO: 86), B1 (SEQ ID NO: 87), and B2 (SEQ ID NO: 88), each at 100 pmol), and polyI:C (10 μg/ml). Phosphorylated Nlrc4 (p-Nlrc4) and total Nlrc4 (t-Nlrc4) were detected by Western blot. Actin is provided as a loading control. The p-NLRC4 bands were indicated by black arrow.
Previous studies have shown that NLRC4 inflammasome activation in response to Salmonella exposure requires two steps for its activation, phosphorylation on Ser533 residue of NLRC4 and NAIP mediated oligomerization of NLRC4. […] Moreover, treatment with SINE RNAs induced caspase-1 p20 cleavage, indicative of inflammasome activation (FIG. 2). For the subsequent experiments in this study, we used Alu RNA (SEQ ID NO: 86) as the stimulus to activate the NLRC4 inflammasome. To date, two kinases are reported to phosphorylate NLRC4 at S533: protein kinase C delta (PKCδ) and leucine rich repeat-containing kinase-2 (LRRK2). To explore the roles of these kinases in Alu RNA (SEQ ID NO: 86) induced NLRC4 phosphorylation, we pretreated BMDMs with pharmacological inhibitors of LRRK2 (GSK2578215A, GSK) and PKCδ (Rottlerin, Rot) respectively.

For another series, the system named is RPE degeneration. Description: Alu RNA induced RPE degeneration in mice, fundus images and ZO-1 staining. The series is classed as in vivo. The following applies: subretinal, WT mice (FIG. 26). The protocol: FIGS. 25A and 25B. NLRC4 knockdown blocks Alu RNA (SEQ ID NO: 86) induced ASC oligomerization and RPE degeneration. Human RPE cell treated with siRNA target on NLRC4 (SMARTPOOL siRNA for NLRC4: CAACUGGGCUCCUCUGUAA; SEQ ID NO: 93) and NAIP (SMARTPOOL siRNA for NAIP: GUAAAGAGCUAUAUGGAUA; SEQ ID NO: 94), 24 hours later, treated with Alu RNA (SEQ ID NO: 86 at 100 pmol) FIG. 25A. […] The band of ASC oligomers was indicated by black arrow. […] The hyperdense areas due to the RPE degeneration in fundus images and ZO-1 disorganizations in RPE sheet are indicated by white arrows.
FIG. 26. […] Wilde type of C57/B6 mice were intravitreally injected with siRNA target on Ddx17 (siRNA for Ddx17: GGCUAGAUGUGGAAGAUGU; SEQ ID NO: 95), and two days later, Nlrc4^−/−, Naip1-6^−/−, mice and Ddx17 knockdown mice were subretinally injected with Alu RNA (SEQ ID NO: 86). […] The hyperdense areas due to the RPE degeneration in fundus images and ZO-1 disorganizations in RPE sheet are indicated by white arrows.
as §1
We delivered Alu RNA (SEQ ID NO: 86) or Alu RNA (SEQ ID NO: 86)+siDDX17 subretinally in WT or NLRC4 KO or NAIP1-6 KO mice and examined for RPE degeneration using fundus photos and ZO-1 staining as described previously.

The test system of another series is ASC specks. Description: SINE RNA induced ASC specks in BMDM, immunofluorescence. The following applies: BMDMs, transfection vs Mock (FIG. 3A). The series is classed as cell-based, mouse. How it is done: FIGS. 3A and 3B. SINE RNA-induced ASC oligomerization is dependent on NLRC4 (BMDM). FIG. 3A. Immunofluorescence images of endogenous ASC specks and NLRC4 puncta in BMDMs after transfected with Alu (SEQ ID NO: 86) or B2 (SEQ ID NO: 88) RNA or transfection reagents only (Mock). […] Moreover, NLRC4 proteins assembled as puncta, and co-resided with ASC specks. FIG. 3B. ASC oligomerizations were evaluated in wild-type and Nlrc4^−/− BMDMs through cross-linking and western blot. […] The bands of oligomeric ASC protein were indicated by black arrow.
The activated NLRC4 inflammasome undergoes oligomerization by assembling into high-molecular mass multiprotein complexes. We first investigated in situ assembling of NLRC4 and apoptosis speck (ASC) like protein complexes in response to SINE RNA treatment of BMDMs. Immunofluorescence studies show increased NLRC4 and ASC specks in SINE RNA-treated BMDMs compared to mock-treated cells (FIG. 3A). To assess NLRC4 inflammasome assembly, WT and NLRC4 KO BMDM cells were treated with Alu RNA (SEQ ID NO: 86). Disuccinimidyl suberate (DSS) cross-linked lysates were resolved using denaturing SDS-PAGE to detect ASC oligomers and cell lysates were resolved using native polyacrylamide gel electrophoresis (NATIVE-PAGE) to detect NLRC4 oligomerization. […] NLRC4/ASC oligomerization is essential for the cleavage of pro-caspase-1 into its active form p20 and IL-1β release.

For the substance Alu RNA: human SINE RNA, SEQ ID NO: 86, the “formation of NLRC4 oligomers, human RPE cells” value with NLRC4 is on record as “induced the formation of NLRC4 oligomers”. The “NLRC4 phosphorylation on S533 in BMDMs” value in series [1] is on record as “induced”. Also, the “RPE degeneration induced by Alu RNA” value in the series with RPE degeneration is recorded as “induced RPE degeneration”. In addition, the “formation of ASC specks” value in the series on ASC specks is listed as “induced the formation of ASC specks”.
